Laboratory results reported in patent publication US8044071B2, “Method for reducing side effects of CB2 receptor agonist therapy using a combination of a selective CB2 receptor agonist and a selective CB1 receptor antagonist” (Abbott Laboratories, priority 2007, dated 2011).

System: skin incision model of postoperative pain
Assay: Skin incision model of postoperative pain (tactile allodynia, von Frey)
Format: in vivo
Settings: rat, rimonabant 30 μmol/kg i.p., vehicle 15 min later
From the text: Adult male Sprague-Dawley rats (250-300 g body weight, Charles River Laboratories, Portage, Mich.) were used. Animal handling and experimental protocols were approved by the Institutional Animal Care and Use Committee (IACUC) at Abbott Laboratories. For all surgical procedures, animals were maintained under halothane anesthesia (4% to induce, 2% to maintain), and the incision sites were sterilized using a 10% povidone-iodine solution prior to and after surgeries.
A skin incision model of postoperative pain was produced using the procedures described in Brennan et al., 1996, Pain, 64, 493. All rats were anesthetized with isoflurane delivered via a nose cone. Right hind paw incision was performed following sterilization procedures. The plantar aspect of the […] hind paw was placed through a hole in a sterile plastic drape. A 1-cm longitudinal incision was made through the skin and fascia of the plantar aspect of the hind paw, starting 0.5 cm from the proximal edge of the heel and extending towards the toes, the plantar muscle was elevated and incised longitudinally leaving the muscle origin and insertion points intact. The skin was then closed with two mattress sutures (5-0 nylon). After surgery, animals were then allowed to recover for 2 hours, at which time tactile allodynia was assessed as described below. To evaluate the anti-nociceptive effects, animals were i.p. administered vehicle or test compound 90 minutes following skin incision and tactile allodynia was typically assessed 30 minutes after compound administration.
Tactile allodynia was measured using calibrated von Frey filaments (Stoelting, Wood Dale, Ill.) as described in Chaplan, S. R., F. W. Bach, J. W. Porgrel, J. M. Chung and T. L. Yaksh, 1994, Quantitative assessment of tactile allodynia in the rat paw, J. Neurosci. Methods, 53, 55. Rats were placed into inverted individual plastic cage (20×12.5×20 cm) on top of a suspended wire mesh grid, and acclimated to the test chambers for 20 minutes. The von Frey filaments were applied perpendicularly from underneath the cage through openings in the wire mesh floor directly to an area within 1-3 mm (immediately adjacent) of the incision, and then held in this position for approximately 8 seconds with enough force to cause a slight bend in the filament. Positive responses included an abrupt withdrawal of the hind paw from the stimulus, or flinching behavior immediately following removal of the stimulus. A 50% withdrawal threshold was determined using an up-down procedure as described in Dixon, W. J., 1980, Efficient analysis of experimental observations, Ann. Rev. Pharmacol. Toxicol., 20, 441. The effect on paw withdrawal latency of test compounds compared to vehicle control represents the ability of the test compound to reduce allodynia. An increase in the paw withdrawal latency represents an anti-allodynic effect (i.e., a decrease in pain).
Using the skin incisional model of postoperative pain, the effects of compound A, CB2 agonist (Z)—N-(5-tert-butyl-3-butylthiazol-2(3H)-ylidene)-5-chloro-2-methoxybenzamide, on allodynia was assessed two hours after surgery.
Using the skin incisional model of postoperative pain, the effects of CB2 agonist A were evaluated after the administration of vehicle or the CB1 antagonist rimonabant. This effect was compared with the administration of vehicle after the administration of vehicle or the CB1 antagonist rimonabant. A first dose, consisting of CB1 antagonist rimonabant (30 μmol/kg i.p.) or a vehicle (5% DMSO/PEG), was administered 15 minutes before a second dose, consisting of administration of CB2 agonist A (30 μmol/kg i.p.) or vehicle. Allodynia testing was conducted 30 minutes after administration of the second dose, either CB2 agonist A or vehicle.

Cc1c(C(=O)NN2CCCCC2)nn(-c2ccc(Cl)cc2Cl)c1-c1ccc(Cl)cc1 [rimonabant, 5-(4-chlorophenyl)-1-(2,4-dichlorophenyl)-4-methyl-N-(piperidin-1-yl)-1H-pyrazole-3-carboxamide, reference compound]
tactile allodynia, rimonabant followed by vehicle: did not ameliorate the tactile allodynia
